Data reported in US11229204B2, “Herbicidal composition comprising at least one phenolic active compound” (UNIVERSITÉ DE LIÈGE, priority 2018, dated 2022).

Tests used:
[1] = test system: Raphanus sativus and Lepidium sativum; conditions: 27 flavonoids tested; only poor results on radical elongation for the highest tested concentration of 10^−4M; cited from earlier work
[2] = test system: Trifolium incarnatum; assay: Pre-emergence activity, experiment n° 2: hypocotyl and root lengths of seeds on moistened filter paper; type: in vivo; conditions: 100 mg/L in methanol 1%
Method: Seeds of Trifolium incarnatum were obtained from ECOSEM industry (Belgium). Filter papers were placed in petri dishes and moistened with 2 ml of methanol 1% solution for the seedling control, or with myricitrin solution at 100 mg/L in methanol 1% for the treated seedling. Methanol was identified as a solvent not interfering with the pre-emergence of plants. Ten seeds of Trifolium incarnatum were then placed immediately in each petri dish and three replicates were prepared. All petri dishes were randomly placed in a growth chamber at a temperature of 23±1° C., in the dark and the hypocotyls and root lengths were measured after 7 days.

| SMILES | effect on germination and radical elongation [1] | seed germination compared with control ([2]; 7 incubation days) | development of roots and hypocotyls ([2]; 7 days (FIG. 5)) | phytotoxic effect on the pre-emergence in comparison with the control ([2]; 7 days, 23±1° C., dark (FIG. 5)) |
| --- | --- | --- | --- | --- |
| COc1c(-c2ccccc2)oc2ccccc2c1=O [3-OCH3-flavone] | act on germination and on radical elongation |  |  |  |
| COc1ccc(-c2cc(=O)c3ccccc3o2)cc1OC [3′,4′-di-OCH3-flavone] | act on germination and on radical elongation |  |  |  |
| C[C@@H]1O[C@@H](Oc2c(-c3cc(O)c(O)c(O)c3)oc3cc(O)cc(O)c3c2=O)[C@H](O)[C@H](O)[C@H]1O [myricitrin] |  | inhibited seed germination | inhibited | significant phytotoxic effect |
| O=C1C[C@@H](c2ccccc2)Oc2cc(O)cc(O)c21 [pinocembrin, 5,7-di-OH-flavanone] | act on germination and on radical elongation |  |  |  |
| O=c1c(O)c(-c2ccc(O)c(O)c2)oc2cc(O)cc(O)c12 [quercetin, 3,5,7,3′,4′-penta-OH-flavone] | act on germination and on radical elongation |  |  |  |
